Patent publication US12023333B2, “Phenyl-sulfamoyl.benzoyc acids as ERAP1 modulators” (GREY WOLF THERAPEUTICS LIMITED, priority 2019, dated 2024)

Molecular target: T1, Purified ERAP1(37-941)-10His (ERAP1) (Homo sapiens, UniProt Q9NZ08)
T1 construct: Purified ERAP1(37-941)-10His (ERAP1); 10His (C)
Assay: ERAP1 mediated hydrolysis of an amide substrate measured in a biochemical system (10-mer decapeptide substrate)
Details: 10-mer substrate, 23° C. for 1 h, excitation 279 nm and emission 355 nm; read-out: IC50 vs Decapeptide WRVYEKC(Dnp)ALK-acid (where Dnp is Dinitrophenyl maleimide) (10-mer)
Procedure: Biological Assay 1: ERAP1 Mediated Hydrolysis of an Amide Substrate Measured in a Biochemical System
1× Assay buffer (AB): 25 mM Bis-tris propane, 0.05% w/v Hydroxypropylmethylcellulose pH 7.75 made with Optima grade water
Decapeptide WRVYEKC(Dnp)ALK-acid (where Dnp is Dinitrophenyl maleimide) (10-mer) L-Leucine 7-amido-4-methylcoumarin (L-AMC)
12.5 μL ERAP1 enzyme in 1×AB was combined with 250 nL test compound in DMSO. 12.5 μL of either 240 μM L-AMC in 1×AB or 100 μM 10-mer in 1×AB was added to the reaction and incubated at 23° C. for 1 h. For detection, plates were read at excitation 365 nm and emission 442 nm (L-AMC) or excitation 279 nm and emission 355 nm (10-mer). Compound IC50 was determined using a 4 parameter equation.

T1 sequence (Q9NZ08 37-941): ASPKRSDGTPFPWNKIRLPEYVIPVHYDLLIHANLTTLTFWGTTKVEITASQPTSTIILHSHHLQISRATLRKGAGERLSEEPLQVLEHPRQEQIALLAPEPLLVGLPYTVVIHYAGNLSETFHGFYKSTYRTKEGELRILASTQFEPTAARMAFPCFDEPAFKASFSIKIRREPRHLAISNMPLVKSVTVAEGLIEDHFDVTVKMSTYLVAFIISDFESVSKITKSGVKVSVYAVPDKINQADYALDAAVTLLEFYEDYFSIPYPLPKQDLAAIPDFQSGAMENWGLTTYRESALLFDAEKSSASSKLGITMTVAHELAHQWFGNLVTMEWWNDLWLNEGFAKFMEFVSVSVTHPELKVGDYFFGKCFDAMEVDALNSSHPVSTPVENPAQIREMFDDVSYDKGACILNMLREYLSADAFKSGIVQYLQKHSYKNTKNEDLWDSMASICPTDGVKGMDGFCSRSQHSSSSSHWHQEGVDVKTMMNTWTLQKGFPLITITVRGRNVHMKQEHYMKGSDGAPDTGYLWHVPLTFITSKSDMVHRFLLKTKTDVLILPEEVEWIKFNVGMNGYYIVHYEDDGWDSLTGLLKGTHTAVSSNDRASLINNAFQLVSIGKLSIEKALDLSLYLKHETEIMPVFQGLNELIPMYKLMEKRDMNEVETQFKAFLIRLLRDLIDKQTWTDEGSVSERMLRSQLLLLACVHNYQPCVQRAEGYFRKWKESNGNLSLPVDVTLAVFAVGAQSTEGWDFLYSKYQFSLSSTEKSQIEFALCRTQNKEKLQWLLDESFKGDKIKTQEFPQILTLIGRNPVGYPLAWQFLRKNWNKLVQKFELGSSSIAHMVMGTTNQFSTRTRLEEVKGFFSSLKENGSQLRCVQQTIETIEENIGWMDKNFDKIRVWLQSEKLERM

IC50 | SMILES
< 500 nM | O=C(O)c1ccc(C2CC2)c(S(=O)(=O)Nc2cc(-n3cnnn3)c(Cl)cc2-c2ccccn2)c1 [Example 187, 3-(N-(4-chloro-2-(pyridin-2-yl)-5-(tetrazol-1-yl)phenyl)sulfamoyl)-4-cyclopropylbenzoic acid]
< 500 nM | CCc1ccc(C(=O)O)cc1S(=O)(=O)Nc1cc(C(F)(F)F)ccc1-c1cccs1 [Example 22, 4-ethyl-3-(N-(2-(thiophen-2-yl)-5-(trifluoromethyl)phenyl)sulfamoyl)benzoic acid]
< 500 nM | Cc1sncc1-c1ccc(-c2ccc(Cl)s2)c(NS(=O)(=O)c2cc(C(=O)O)ccc2C2CC2)c1 [Example 149, 3-(N-(2-(5-chlorothiophen-2-yl)-5-(5-methylisothiazol-4-yl)phenyl)sulfamoyl)-4-cyclopropylbenzoic acid]
< 500 nM | COc1ccc(C(=O)O)cc1S(=O)(=O)Nc1cc(C(F)(F)F)ccc1-c1ccc(C#N)s1 [Example 125, 3-(N-(2-(5-cyanothiophen-2-yl)-5-(trifluoromethyl)phenyl)sulfamoyl)-4-methoxybenzoic acid]
< 5000 nM | COc1ccc(C(=O)O)cc1S(=O)(=O)Nc1cc(C(F)(F)F)ccc1-c1ccccc1C#N [Example 13, 3-(N-(2′-cyano-4-(trifluoromethyl)-[1,1′-biphenyl]-2-yl)sulfamoyl)-4-methoxybenzoic acid]
> 5000 nM | COc1ccc(C(=O)O)cc1S(=O)(=O)Nc1cc(C(F)(F)F)ccc1-c1ccc(C)cc1 [Example 47, 4-methoxy-3-(N-(4′-methyl-4-(trifluoromethyl)-[1,1′-biphenyl]-2-yl)sulfamoyl)benzoic acid]
< 500 nM | COc1ccc(C(=O)O)cc1S(=O)(=O)Nc1cc(S(C)(=O)=O)ccc1-c1ccccn1 [Example 44, 4-methoxy-3-(N-(5-(methylsulfonyl)-2-(pyridin-2-yl)phenyl)sulfamoyl)benzoic acid]
< 500 nM | N#Cc1cc(NS(=O)(=O)c2cc(C(=O)O)ccc2C2CC2)c(-n2cccc2)cc1Cl [Example 161, 3-(N-(4-chloro-5-cyano-2-(pyrrol-1-yl)phenyl)sulfamoyl)-4-cyclopropylbenzoic acid]
< 500 nM | O=C(O)c1ccc(C2CC2)c(S(=O)(=O)Nc2cc(C(F)(F)F)ccc2-n2cccc2)c1 [Example 99, 3-(N-(2-pyrrol-1-yl-5-(trifluoromethyl)phenyl)sulfamoyl)-4-cyclopropylbenzoic acid]
< 500 nM | N#Cc1cc(NS(=O)(=O)c2cc(C(=O)O)ccc2C2CC2)c(-c2ncccn2)cc1Cl [Example 179, 3-(N-(4-chloro-5-cyano-2-(pyrimidin-2-yl)phenyl)sulfamoyl)-4-cyclopropylbenzoic acid]
< 500 nM | COc1ccc(C(=O)O)cc1S(=O)(=O)Nc1cc(S(C)(=O)=O)ccc1-c1cccs1 [Example 78, 4-methoxy-3-(N-(5-(methylsulfonyl)-2-(thiophen-2-yl)phenyl)sulfamoyl) benzoic acid]
< 500 nM | CS(=O)(=O)c1ccc(-c2ccc(C#N)s2)c(NS(=O)(=O)c2cc(C(=O)O)ccc2C2CC2)c1 [Example 124, 3-(N-(2-(5-cyanothiophen-2-yl)-5-(methylsulfonyl)phenyl)sulfamoyl)-4-cyclopropylbenzoic acid]
< 500 nM | N#Cc1ccc(-c2cccs2)c(NS(=O)(=O)c2cc(C(=O)O)ccc2C2CC2)c1 [Example 75, 3-(N-(5-cyano-2-(thiophen-2-yl)phenyl)sulfamoyl)-4-cyclopropylbenzoic acid]
< 500 nM | O=C(O)c1ccc(C2CC2)c(S(=O)(=O)Nc2cc(C(F)(F)F)ccc2-c2ccc(C3CC3)s2)c1 [Example 114, 4-cyclopropyl-3-(N-(2-(5-cyclopropylthiophen-2-yl)-5-(trifluoromethyl)phenyl)sulfamoyl)benzoic acid]
< 500 nM | COc1ccc(C(=O)O)cc1S(=O)(=O)Nc1cc(C#N)ccc1-c1cccs1 [Example 62, 3-(N-(5-cyano-2-(thiophen-2-yl)phenyl)sulfamoyl)-4-methoxybenzoic acid]
< 500 nM | N#Cc1ccc(-c2nccs2)c(NS(=O)(=O)c2cc(C(=O)O)ccc2C2CC2)c1 [Example 163, 3-(N-(5-cyano-2-(thiazol-2-yl)phenyl)sulfamoyl)-4-cyclopropylbenzoic acid]
< 500 nM | COc1ccc(C(=O)O)cc1S(=O)(=O)Nc1cc(C#N)ccc1-c1ccc(C)s1 [Example 81, 3-(N-(5-cyano-2-(5-methylthiophen-2-yl)phenyl)sulfamoyl)-4-methoxybenzoic acid]
< 500 nM | COc1ccc(C(=O)O)cc1S(=O)(=O)Nc1cc(C(F)(F)F)c(F)cc1-n1cccc1 [Example 162, 3-(N-(4-fluoro-2-(pyrrol-1-yl)-5-(trifluoromethyl)phenyl)sulfamoyl)-4-methoxybenzoic acid]

IC50 | SMILES
> 5000 nM | COc1ccc(C(=O)O)cc1S(=O)(=O)Nc1cc(C(F)(F)F)ccc1-c1ccncc1 [Example 14, 4-methoxy-3-(N-(2-(pyridin-4-yl)-5-(trifluoromethyl)phenyl)sulfamoyl)benzoic acid]
< 500 nM | O=C(O)c1ccc(C2CC2)c(S(=O)(=O)Nc2cc(C(F)(F)F)ccc2-c2ccccc2)c1 [Example 55, 4-cyclopropyl-3-(N-(4-(trifluoromethyl)-[1,1′-biphenyl]-2-yl)sulfamoyl) benzoic acid]
> 5000 nM | N#Cc1ccc(-c2ccccn2)c(NS(=O)(=O)c2cc(C(=O)O)ccc2C#N)c1 [Example 175, 4-cyano-3-(N-(5-cyano-2-(pyridin-2-yl)phenyl)sulfamoyl)benzoic acid]
< 500 nM | CCc1ccc(C(=O)O)cc1S(=O)(=O)Nc1cc(C#N)ccc1-c1cccc(F)c1 [Example 41]
< 500 nM | Cn1ncnc1-c1cc(NS(=O)(=O)c2cc(C(=O)O)ccc2C2CC2)c(-n2cccc2)cc1F [Example 201, 4-cyclopropyl-3-(N-(4-fluoro-5-(1-methyl-1,2,4-triazol-5-yl)-2-(pyrrol-1-yl)phenyl)sulfamoyl)benzoic acid]
< 500 nM | O=C(O)c1ccc(C2CC2)c(S(=O)(=O)Nc2cc(C(F)(F)F)ccc2-c2ccc(Cl)s2)c1 [Example 113, 3-(N-(2-(5-chlorothiophen-2-yl)-5-(trifluoromethyl)phenyl)sulfamoyl)-4-cyclopropylbenzoic acid]
< 500 nM | N#Cc1ccc(-c2cccc(F)n2)c(NS(=O)(=O)c2cc(C(=O)O)ccc2C2CC2)c1 [Example 153, 3-(N-(5-cyano-2-(6-fluoropyridin-2-yl)phenyl)sulfamoyl)-4-cyclopropylbenzoic acid]
< 500 nM | CCc1ccc(C(=O)O)cc1S(=O)(=O)Nc1cc(S(C)(=O)=O)ccc1-c1cccc(C#N)c1 [Example 39, 3-(N-(3′-cyano-4-(methylsulfonyl)-[1,1′-biphenyl]-2-yl)sulfamoyl)-4-ethylbenzoic acid]
< 500 nM | CS(=O)(=O)c1cc(NS(=O)(=O)c2cc(C(=O)O)ccc2C2CC2)c(-c2ccccn2)cc1F [Example 172, 4-cyclopropyl-3-(N-(4-fluoro-5-(methylsulfonyl)-2-(pyridin-2-yl)phenyl)sulfamoyl)benzoic acid]
< 500 nM | CCc1ccc(C(=O)O)cc1S(=O)(=O)Nc1cc(-n2cnnn2)ccc1-c1ccccc1 [Example 52, 3-(N-(4-(tetrazol-1-yl)-[1,1′-biphenyl]-2-yl)sulfamoyl)-4-ethylbenzoic acid]
< 500 nM | N#Cc1ccc(-c2ncccn2)c(NS(=O)(=O)c2cc(C(=O)O)ccc2C2CC2)c1 [Example 169, 3-(N-(5-cyano-2-(pyrimidin-2-yl)phenyl)sulfamoyl)-4-cyclopropylbenzoic acid]
< 500 nM | Cn1nccc1-c1cc(NS(=O)(=O)c2cc(C(=O)O)ccc2C2CC2)c(-c2ccccn2)cc1Cl [Example 188, 3-(N-(4-chloro-5-(1-methylpyrazol-5-yl)-2-(pyridin-2-yl)phenyl)sulfamoyl)-4-cyclopropylbenzoic acid]
< 500 nM | N#Cc1ccc(-c2ccccn2)c(NS(=O)(=O)c2cc(C(=O)O)ccc2C2CCC2)c1 [Example 168, 3-(N-(5-cyano-2-(pyridin-2-yl)phenyl)sulfamoyl)-4-cyclobutylbenzoic acid]
< 500 nM | CCc1ccc(C(=O)O)cc1S(=O)(=O)Nc1cc(S(C)(=O)=O)ccc1-c1cccs1 [Example 34, 4-ethyl-3-(N-(5-(methylsulfonyl)-2-(thiophen-2-yl)phenyl)sulfamoyl) benzoic acid]
< 500 nM | COc1ccc(C(=O)O)cc1S(=O)(=O)Nc1cc(C(F)(F)F)ccc1-c1ccc(C)s1 [Example 79, 4-methoxy-3-(N-(2-(5-methylthiophen-2-yl)-5-(trifluoromethyl)phenyl)sulfamoyl)benzoic acid]
< 500 nM | COc1ccc(C(=O)O)cc1S(=O)(=O)Nc1cc(C(F)(F)F)ccc1-c1ccccn1 [Example 26, 4-methoxy-3-(N-(2-(pyridin-2-yl)-5-(trifluoromethyl)phenyl)sulfamoyl) benzoic acid]
< 500 nM | CCc1ccc(C(=O)O)cc1S(=O)(=O)Nc1cc(C(F)(F)F)ccc1-c1ccc(OC)s1 [Example 59, 4-ethyl-3-(N-(2-(5-methoxythiophen-2-yl)-5-(trifluoromethyl)phenyl)sulfamoyl)benzoic acid]
< 500 nM | O=C(O)c1ccc(C2CC2)c(S(=O)(=O)Nc2cc(C(F)(F)F)ccc2-c2cccs2)c1 [Example 76, 4-cyclopropyl-3-(N-(2-(thiophen-2-yl)-5-(trifluoromethyl)phenyl)sulfamoyl)benzoic acid]
